Values after ≈ are worked out from the molar mass of the structure shown. Where two headings read alike, the source gives them in different places. A value given as a limit tells only on which side of the number the result lay.

This is an account of results in article PMC9230803, “Synthesis and Antiviral Properties against SARS-CoV-2 of Epoxybenzooxocino[4,3-b]Pyridine Derivatives” (Molecules, 2022).

The subject of one assay is SARS-CoV-2 virus. Put plainly: microbe, parasite or virus in culture. Type of assay: cell-based. To be noted: for selectivity index (SI): IC50/EC50 in Vero E6 cells; for inhibition of virus-induced CPE development / virus replication (in words): any concentration up to the tested limit of 200 µg/mL.
The test system of a further assay is Vero E6 cells. Put plainly: cells. To be noted: Chlorocebus sabaeus, Vero C1008, upper limit of concentrations tested 200 µg/mL, read-out: IC50 (the source's name). It counts as cell-based.
[1] abbreviates: SARS-CoV-2 in Vero E6 cells, CPE-positive wells reduced by half, upper limit tested 200 µg/mL.
[2] abbreviates: Severe acute respiratory syndrome coronavirus 2, Vero C1008, SARS-CoV-2 in Vero E6 cells, CPE-positive wells reduced by half, upper limit tested 200 µg/mL, read-out: EC50.
[3] abbreviates: cytotoxicity, uninfected Vero E6 cells, MTT.

As usually defined, the EC50 is the midpoint of the concentration-response curve. For the compound `Cc1nc2c(cc1C(=O)/C=C1\Nc3ccccc3NC1=O)C1(C)Oc3ccccc3C(C2)O1` (stereo not shown) [Compound 6a, (Z)-3-(2-(2,5-dimethyl-11,12-dihydro-5H-5,11-epoxybenzo[7,8]oxocino[4,3-b]pyridin-3-yl)-2-oxoethylidene)-3,4-dihydroquinoxalin-2(1H)-one], the “wells presenting the CPE” value in the assay with SARS-CoV-2 virus (6a at 0.82 μg/mL, ten wells per concentration) is on record as “Eight of ten”. In the assay with SARS-CoV-2 virus (6a at 2.47 μg/mL, ten wells per concentration), the “wells showing the CPE” value was “one in ten”. In the assay with SARS-CoV-2 virus, the “selectivity index (SI)” value is reported as 2.7 and the “inhibition of virus-induced CPE development / virus replication (in words)” value is on record as “inhibition of CPE development was found”. The concentration giving a half-maximal response (EC50) with SARS-CoV-2 virus (setting [1]) came out at 2.2 µg/mL (≈ 5.01 µM). Moreover, the EC50 in the assay with SARS-CoV-2 virus (setting [2]) was determined as 2.23 µg/mL (≈ 5.07 µM). Besides, the CC50 in the assay with Vero E6 cells (setting [3]) was 6 µg/mL (≈ 13.7 µM).
For the compound `CCN(CC)CCOc1ccc2c(c1)C(=O)c1cc(OCCN(CC)CC)ccc1-2.Cl` [Tilorone, 2,7-bis[2-(diethylamino)ethoxy]fluoren-9-one hydrochloride, reference compound], the “selectivity index (SI)” value in the assay with SARS-CoV-2 virus was 1.8. Besides, the EC50 in the assay with SARS-CoV-2 virus (setting [1]) was 4.3 µg/mL; with SARS-CoV-2 virus (setting [2]), 4.29 µg/mL.
For `Cc1nc2c(cc1C(=O)/C=C1\Nc3ccccc3OC1=O)C1(C)Oc3ccccc3C(C2)O1` (stereo not shown) [Compound 6b, (Z)-3-(2-(2,5-dimethyl-11,12-dihydro-5H-5,11-epoxybenzo[7,8]oxocino[4,3-b]pyridin-3-yl)-2-oxoethylidene)-3,4-dihydro-2H-benzo[b][1,4]oxazin-2-one], in the assay with SARS-CoV-2 virus (setting [2]), the concentration for a half-maximal effect (EC50) is above 200 µg/mL. In addition, the “inhibition of virus-induced CPE development / virus replication (in words)” value with SARS-CoV-2 virus is “did not affect the development of CPE”. Moreover, the CC50 in the assay on Vero E6 cells (setting [3]) was above 200 µg/mL.
Consider `CC(=NNC(=O)c1ccncc1)c1cc2c(nc1C)CC1OC2(C)Oc2ccccc21` (stereo not shown) [Compound 4a, (E,Z)-N′-(1-(2,5-dimethyl-11,12-dihydro-5H-5,11-epoxybenzo[7,8]oxocino[4,3-b]pyridin-3-yl)ethylidene)isonicotinohydrazide], for which the concentration giving a half-maximal response (EC50) in the assay with SARS-CoV-2 virus (setting [2]) is above 200 µg/mL. Also, the “inhibition of virus-induced CPE development / virus replication (in words)” value with SARS-CoV-2 virus is listed as “did not affect the development of CPE”. Also, the CC50 in the assay on Vero E6 cells (setting [3]) was above 200 µg/mL.
Turning to `CC(=O)c1cc2c(nc1C)CC1OC2(C)Oc2ccccc21` (stereo not shown) [Compound 3, 1-(2,5-dimethyl-11,12-dihydro-5H-5,11-epoxybenzo[7,8]oxocino[4,3-b]pyridin-3-yl)ethan-1-one], in the assay on SARS-CoV-2 virus (setting [2]), the EC50 is above 200 µg/mL. Moreover, the “inhibition of virus-induced CPE development / virus replication (in words)” value in the assay on SARS-CoV-2 virus was “did not affect the development of CPE”. The CC50 in the assay with Vero E6 cells (setting [3]) is 131 µg/mL (≈ 444 µM).
For `C/C(=N\NC(=O)c1ccccc1O)c1cc2c(nc1C)CC1OC2(C)Oc2ccccc21` (stereo not shown) [Compound 4b, (E)-N′-(1-(2,5-dimethyl-11,12-dihydro-5H-5,11-epoxybenzo[7,8]oxocino[4,3-b]pyridin-3-yl)ethylidene)-2-hydroxybenzohydrazide], the concentration for a half-maximal effect (EC50) with SARS-CoV-2 virus (setting [2]) is above 200 µg/mL. Besides, the “inhibition of virus-induced CPE development / virus replication (in words)” value with SARS-CoV-2 virus is “did not affect the development of CPE”. In addition, the CC50 in the assay on Vero E6 cells (setting [3]) is above 200 µg/mL.
For `Cc1nc2c(cc1C(=O)/C=C1\Nc3ccc([N+](=O)[O-])cc3OC1=O)C1(C)Oc3ccccc3C(C2)O1` (stereo not shown) [Compound 6c, (Z)-3-(2-(2,5-dimethyl-11,12-dihydro-5H-5,11-epoxybenzo[7,8]oxocino[4,3-b]pyridin-3-yl)-2-oxoethylidene)-7-nitro-3,4-dihydro-2H-benzo[b][1,4]oxazin-2-one], the EC50 in the assay with SARS-CoV-2 virus (setting [2]) was above 200 µg/mL. Further, the “inhibition of virus-induced CPE development / virus replication (in words)” value in the assay with SARS-CoV-2 virus is “did not affect the development of CPE”. Moreover, in the assay with Vero E6 cells (setting [3]), the CC50 is above 200 µg/mL.
In the case of `Cc1nc2c(cc1C(=O)/C=C(\O)C(=O)O)C1(C)Oc3ccccc3C(C2)O1` (stereo not shown) [Compound 5, (Z)-4-(2,5-dimethyl-11,12-dihydro-5H-5,11-epoxybenzo[7,8]oxocino[4,3-b]pyridin-3-yl)-2-hydroxy-4-oxobut-2-enoic acid], the EC50 in the assay on SARS-CoV-2 virus (Severe acute respiratory syndrome coronavirus 2, Vero C1008) was above 200 µg/mL. Besides, the “inhibition of virus-induced CPE development / virus replication (in words)” value in the assay with SARS-CoV-2 virus was “did not affect the development of CPE”. Further, the CC50 in the assay with Vero E6 cells ([…]) is above 200 µg/mL.
